According to PubChem BioAssay (NCI):
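1) Cells in 96-well plates. 2) Compound, 48 h, 5 concentrations. 3) Linear interpolation between surrounding doses. 4) Unreached endpoint = highest concentration. At the GI50, growth is halved. TGI denotes the concentration required for complete inhibition of growth.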

Experiments:
Assay in all cases: NCI tumour cell line growth inhibition, 48 h
MCF7 breast = tested on: MCF7 breast
HL-60(TB) leukemia = tested on: HL-60(TB) leukemia
MDA-MB-435 = tested on: MDA-MB-435
OVCAR-4 ovarian = tested on: OVCAR-4 ovarian
OVCAR-3 ovarian = tested on: OVCAR-3 ovarian
SNB-19 CNS = tested on: SNB-19 CNS
UO-31 renal = tested on: UO-31 renal
TK-10 renal = tested on: TK-10 renal
HOP-92 NSCLC = tested on: HOP-92 NSCLC
SF-295 CNS = tested on: SF-295 CNS
U251 CNS = tested on: U251 CNS
PC-3 prostate = tested on: PC-3 prostate
SF-539 CNS = tested on: SF-539 CNS
NCI-H23 lung = tested on: NCI-H23 lung
HS 578T breast = tested on: HS 578T breast
MDA-MB-231 breast = tested on: MDA-MB-231 breast
HCC-2998 colon = tested on: HCC-2998 colon
UACC-62 melanoma = tested on: UACC-62 melanoma
SNB-75 CNS = tested on: SNB-75 CNS
NCI-H522 lung = tested on: NCI-H522 lung
A549 NSCLC = tested on: A549 NSCLC
T-47D breast = tested on: T-47D breast
K-562 leukemia = tested on: K-562 leukemia
OVCAR-8 ovarian = tested on: OVCAR-8 ovarian
EKVX NSCLC = tested on: EKVX NSCLC
UACC-257 melanoma = tested on: UACC-257 melanoma
COLO 205 colon = tested on: COLO 205 colon
MOLT-4 leukemia = tested on: MOLT-4 leukemia
SK-MEL-5 melanoma = tested on: SK-MEL-5 melanoma
786-0 renal = tested on: 786-0 renal
A498 renal = tested on: A498 renal
LOX IMVI melanoma = tested on: LOX IMVI melanoma
M14 melanoma = tested on: M14 melanoma
SF-268 CNS = tested on: SF-268 CNS
BT-549 breast = tested on: BT-549 breast
NCI-H226 lung = tested on: NCI-H226 lung
IGROV1 ovarian = tested on: IGROV1 ovarian
HOP-62 NSCLC = tested on: HOP-62 NSCLC
SN12C renal = tested on: SN12C renal
MALME-3M melanoma = tested on: MALME-3M melanoma
SK-MEL-28 melanoma = tested on: SK-MEL-28 melanoma
NCI-H460 lung = tested on: NCI-H460 lung
RPMI-8226 leukemia = tested on: RPMI-8226 leukemia
SW-620 colon = tested on: SW-620 colon
CCRF-CEM leukemia = tested on: CCRF-CEM leukemia
HCT-116 colon = tested on: HCT-116 colon
SK-OV-3 ovarian = tested on: SK-OV-3 ovarian
HT29 colon = tested on: HT29 colon
OVCAR-5 ovarian = tested on: OVCAR-5 ovarian
SK-MEL-2 melanoma = tested on: SK-MEL-2 melanoma
ACHN renal = tested on: ACHN renal
HCT-15 colon = tested on: HCT-15 colon
CAKI-1 renal = tested on: CAKI-1 renal
NCI/ADR-RES ovarian = tested on: NCI/ADR-RES ovarian
DU-145 prostate = tested on: DU-145 prostate
KM12 colon = tested on: KM12 colon
RXF 393 renal = tested on: RXF 393 renal

## COC(=O)c1oc2c(C(C)=O)c(OCCN3CCOCC3)c(OC)cc2c1C
MCF7 breast
  GI50: > 100 µM
  TGI: > 100 µM
HL-60(TB) leukemia
  GI50: > 100 µM
  TGI: > 100 µM
MDA-MB-435
  GI50: > 100 µM
  TGI: > 100 µM
OVCAR-4 ovarian
  GI50: > 100 µM
  TGI: > 100 µM
OVCAR-3 ovarian
  GI50: > 100 µM
  TGI: > 100 µM
SNB-19 CNS
  GI50: > 100 µM
  TGI: > 100 µM
UO-31 renal
  GI50: > 100 µM
  TGI: > 100 µM
TK-10 renal
  GI50: > 100 µM
  TGI: > 100 µM
HOP-92 NSCLC
  GI50: > 100 µM
  TGI: > 100 µM
SF-295 CNS
  GI50: > 100 µM
  TGI: > 100 µM
U251 CNS
  GI50: > 100 µM
  TGI: > 100 µM
PC-3 prostate
  GI50: > 100 µM
  TGI: > 100 µM
SF-539 CNS
  GI50: > 100 µM
  TGI: > 100 µM
NCI-H23 lung
  GI50: > 100 µM
  TGI: > 100 µM
HS 578T breast
  GI50: > 100 µM
  TGI: > 100 µM
MDA-MB-231 breast
  GI50: > 100 µM
  TGI: > 100 µM
HCC-2998 colon
  GI50: > 100 µM
  TGI: > 100 µM
UACC-62 melanoma
  GI50: > 100 µM
  TGI: > 100 µM
SNB-75 CNS
  GI50: > 100 µM
  TGI: > 100 µM
NCI-H522 lung
  GI50: > 100 µM
  TGI: > 100 µM
A549 NSCLC
  GI50: > 100 µM
  TGI: > 100 µM
T-47D breast
  GI50: > 100 µM
  TGI: > 100 µM
K-562 leukemia
  GI50: > 100 µM
  TGI: > 100 µM
OVCAR-8 ovarian
  GI50: > 100 µM
  TGI: > 100 µM
EKVX NSCLC
  GI50: > 100 µM
  TGI: > 100 µM
UACC-257 melanoma
  GI50: > 100 µM
  TGI: > 100 µM
COLO 205 colon
  GI50: > 100 µM
  TGI: > 100 µM
MOLT-4 leukemia
  GI50: > 100 µM
  TGI: > 100 µM
SK-MEL-5 melanoma
  GI50: > 100 µM
  TGI: > 100 µM
786-0 renal
  GI50: > 100 µM
  TGI: > 100 µM
A498 renal
  GI50: > 100 µM
  TGI: > 100 µM
LOX IMVI melanoma
  GI50: > 100 µM
  TGI: > 100 µM
M14 melanoma
  GI50: > 100 µM
  TGI: > 100 µM
SF-268 CNS
  GI50: > 100 µM
  TGI: > 100 µM
BT-549 breast
  GI50: > 100 µM
  TGI: > 100 µM
NCI-H226 lung
  GI50: > 100 µM
  TGI: > 100 µM
IGROV1 ovarian
  GI50: > 100 µM
  TGI: > 100 µM
HOP-62 NSCLC
  GI50: > 100 µM
  TGI: > 100 µM
SN12C renal
  GI50: > 100 µM
  TGI: > 100 µM
MALME-3M melanoma
  GI50: > 100 µM
  TGI: > 100 µM
SK-MEL-28 melanoma
  GI50: > 100 µM
  TGI: > 100 µM
NCI-H460 lung
  GI50: > 100 µM
  TGI: > 100 µM
RPMI-8226 leukemia
  GI50: > 100 µM
  TGI: > 100 µM
SW-620 colon
  GI50: > 100 µM
  TGI: > 100 µM
CCRF-CEM leukemia
  GI50: > 100 µM
  TGI: > 100 µM
HCT-116 colon
  GI50: > 100 µM
  TGI: > 100 µM
SK-OV-3 ovarian
  GI50: > 100 µM
  TGI: > 100 µM
HT29 colon
  GI50: > 100 µM
  TGI: > 100 µM
OVCAR-5 ovarian
  GI50: > 100 µM
  TGI: > 100 µM
SK-MEL-2 melanoma
  GI50: > 100 µM
  TGI: > 100 µM
ACHN renal
  GI50: > 100 µM
  TGI: > 100 µM
HCT-15 colon
  GI50: > 100 µM
  TGI: > 100 µM
CAKI-1 renal
  GI50: > 100 µM
  TGI: > 100 µM
NCI/ADR-RES ovarian
  GI50: > 100 µM
  TGI: > 100 µM

## Cc1ccc(Cl)cc1Nc1nc(C(F)(F)F)ccc1C(N)=O
MCF7 breast
  GI50: 3.92 µM
  TGI: > 100 µM
MDA-MB-435
  GI50: 12 µM
  TGI: 60.4 µM
OVCAR-4 ovarian
  GI50: 22.3 µM
  TGI: > 100 µM
OVCAR-3 ovarian
  GI50: 13.2 µM
  TGI: 55.7 µM
SNB-19 CNS
  GI50: 11.3 µM
  TGI: > 100 µM
UO-31 renal
  GI50: 5.37 µM
  TGI: > 100 µM
TK-10 renal
  GI50: 4.31 µM
  TGI: 18.5 µM
HOP-92 NSCLC
  GI50: 15.1 µM
  TGI: 40.7 µM
SF-295 CNS
  GI50: 11.9 µM
  TGI: 41.2 µM
U251 CNS
  GI50: 4.09 µM
  TGI: 26.1 µM
PC-3 prostate
  GI50: 14 µM
  TGI: 71.1 µM
SF-539 CNS
  GI50: 4.46 µM
  TGI: 28 µM
NCI-H23 lung
  GI50: 2.76 µM
  TGI: 15.9 µM
DU-145 prostate
  GI50: 9.77 µM
  TGI: > 100 µM
HS 578T breast
  GI50: 0.809 µM
  TGI: 3.94 µM
MDA-MB-231 breast
  GI50: 2.47 µM
  TGI: 11.8 µM
HCC-2998 colon
  GI50: 6.1 µM
  TGI: 20.3 µM
UACC-62 melanoma
  GI50: 6.56 µM
  TGI: 26.6 µM
SNB-75 CNS
  GI50: 8.65 µM
  TGI: > 100 µM
NCI-H522 lung
  GI50: 4.63 µM
  TGI: 60.7 µM
A549 NSCLC
  GI50: 12.8 µM
  TGI: > 100 µM
T-47D breast
  GI50: 3.54 µM
  TGI: > 100 µM
K-562 leukemia
  GI50: 21.3 µM
  TGI: 46.1 µM
OVCAR-8 ovarian
  GI50: 29.4 µM
  TGI: > 100 µM
EKVX NSCLC
  GI50: 4.16 µM
  TGI: 46.8 µM
KM12 colon
  GI50: 5.09 µM
  TGI: 47.8 µM
UACC-257 melanoma
  GI50: 24.8 µM
  TGI: 83.5 µM
COLO 205 colon
  GI50: 5.48 µM
  TGI: 71.2 µM
MOLT-4 leukemia
  GI50: 7.54 µM
  TGI: 48.4 µM
SK-MEL-5 melanoma
  GI50: 1.92 µM
  TGI: 6.6 µM
786-0 renal
  GI50: 3.28 µM
  TGI: 13.6 µM
LOX IMVI melanoma
  GI50: 2.23 µM
  TGI: 11.4 µM
M14 melanoma
  GI50: 10.7 µM
  TGI: 35.7 µM
SF-268 CNS
  GI50: 6.46 µM
  TGI: > 100 µM
BT-549 breast
  GI50: 4.53 µM
  TGI: 28.6 µM
NCI-H226 lung
  GI50: 1.45 µM
  TGI: 9.81 µM
IGROV1 ovarian
  GI50: 5.19 µM
  TGI: 59.2 µM
HOP-62 NSCLC
  GI50: 3.5 µM
  TGI: 17.4 µM
SN12C renal
  GI50: 5.5 µM
  TGI: 91.8 µM
SK-MEL-28 melanoma
  GI50: 43.8 µM
  TGI: > 100 µM
NCI-H460 lung
  GI50: 3.28 µM
  TGI: > 100 µM
RPMI-8226 leukemia
  GI50: 18.6 µM
  TGI: 46.8 µM
SW-620 colon
  GI50: 6.98 µM
  TGI: > 100 µM
CCRF-CEM leukemia
  GI50: 15.1 µM
  TGI: 36.2 µM
HCT-116 colon
  GI50: 5.91 µM
  TGI: 22.8 µM
SK-OV-3 ovarian
  GI50: 16.9 µM
  TGI: > 100 µM
HT29 colon
  GI50: 4.02 µM
  TGI: > 100 µM
OVCAR-5 ovarian
  GI50: 8.48 µM
  TGI: 49.4 µM
SK-MEL-2 melanoma
  GI50: 20.4 µM
  TGI: > 100 µM
ACHN renal
  GI50: 3.67 µM
  TGI: 15.3 µM
RXF 393 renal
  GI50: 10.5 µM
  TGI: 34 µM
HCT-15 colon
  GI50: 5.73 µM
  TGI: > 100 µM
CAKI-1 renal
  GI50: 3.5 µM
  TGI: 23.9 µM
NCI/ADR-RES ovarian
  GI50: 5.7 µM
  TGI: 31.2 µM
